Test results taken from patent US4778811A, “Pharmaceutical compositions of 2-methyl-thiazolo[4,5-c]quinoline” (EGIS Gyogyszergyar, priority 1985, dated 1988).

Key:
[1] = Effect on basal metabolism (O2 consumption); assay type: in vivo, rats; conditions: urethane 0.6 g/kg i.p., 30° C.
Method: The O2 consumption of rats was measured by the method of Issekutz and Issekutz (1952) at constant temperature (30° C.).
O2 consumption of the animals was expressed in ml/h and calculated for body surface, and given finally in ml/h/dm^2. Following injection of urethane and the basal O2 consumption was measured during 30 minutes. This was followed by the injection of the test substance and O2 consumption was registered immediately afterwards. The difference between the highest O2 consumption and the basal value was expressed in percent.
O2 consumption of the animals was calculated according to the following equation: [formula] V=2000 cm^3 P=pressure fall (mmHg)
T=period of measurement (h)
O2 consumption was calculated for body surface and expressed as ml/dm^2 /h. Body surface was calculated on the basis of the "Diack" formula: […]

[2] = Shuttle-box, acquisition of two-way conditioned avoidance reflex; assay type: in vivo
Method: The acquisition of a two-way conditioned avoidance reflex (CAR) was analyzed in the shuttle-box during 5 consecutive days. […] It consists of six boxes, each is separated inside by a barrier with a small gate in the middle. […] They were given 100 trials per day. One trial consisted of 15 s intertrial interval, followed by 15 s CS. The last 5 s of CS overlapped the first s of US. At each learning session the number of CAR and intersignal reactions (IR) was automatically counted and evaluated by multiway analysis of variance (ANOVA).

serotonin (5HT) = assay: 5HT level and turnover rate of 5HT in rat brain parts; assay type: in vivo; conditions: 1 hr after 30 mg/kg s.c.
Method: (§1) 11. The turnover rate of dopamine (TRDA), noradrenaline (TRNA) and serotonin (TR5 HT) was measured 1 hr after the injection of 30 mg/kg s.c. 2-methyl-thiazolo[4,5-c]quinoline-ethanesulphonate.

dopamine (DA) = assay: DA level and turnover rate of DA in rat striatum; assay type: in vivo; conditions: 1 hr after 30 mg/kg s.c.
Method: as §1

benzodiazepine receptor = assay: Benzodiazepine (BZD) receptor binding, 3H-diazepam displacement, crude cortical membrane preparation; conditions: crude cortical membrane, 1 hr, 0° C., TRIS-citrate buffer, pH 6.8
Method: For the studies of benzodiazepine /BZD) receptor binding crude cortical membrane preparation was used. […] ^3 H-diazepam was incubated with the membrane for 1 hr at 0° C. in TRIS-citrate buffer, pH 6.8. Specific binding was determined in the presence of 10 μM diazepam. In displacement studies chlordiazepoxide was used as control drug.

[3] = Screening test: one session conditioning / unconditioned reflex, glass cylinder jump; assay type: in vivo, rats; conditions: 0.025 mg/kg
Method: Was elaborated for studying learning and retention of rats during one session conditioning.
During conditioning rats are trained to jump onto the top of glass cylinder by the electric foot-shock (110 V). The escape reaction (unconditioned reflex, UR) is paired with a bell as conditioned stimulus. The criterion of learning is that conditioned reflex (CR) should be elicited 10 times with 10 s intervals without reinforcement. Retention of CR is taken positive when 24 h following the experiment CR can be elicited. In these experiments animals are distributed into 4 categories on the basis of their learning ability.

With `CC(N)Cc1ccccc1` (stereo not drawn) [amphetamine] the “rate of metabolism / O2 consumption” value [1] was “dose-dependently increased”.

In the case of `Cc1nc2cnc3ccccc3c2s1` [B compound, 2-methyl-thiazolo[4,5-c]quinoline-ethanesulfonate], the “acquisition of conditioned reflex, number of positive responses (F)” value (“acquisition of conditioned reflex … (F)” below) ([2]; 10 mg/kg s.c., day 1) is reported as 7.5, the “number of intersignal reactions (IR)” value ([2]; 10 mg/kg s.c., day 1) is reported as 11.4 and the “number of negative responses (-f)” value ([2]; 10 mg/kg s.c., day 1) is reported as 76.0. For the same compound, the “acquisition of conditioned reflex … (F)” value ([2]; 10 mg/kg s.c., day 2) was 20.2, the “number of intersignal reactions (IR)” value ([2]; 10 mg/kg s.c., day 2) was 9.1 and the “number of negative responses (-f)” value ([2]; 10 mg/kg s.c., day 2) was 40.8. For the same compound, the “acquisition of conditioned reflex … (F)” value ([2]; 10 mg/kg s.c., day 3) was 20.2, the “number of intersignal reactions (IR)” value ([2]; 10 mg/kg s.c., day 3) was 7.6 and the “number of negative responses (-f)” value ([2]; 10 mg/kg s.c., day 3) was 29.3. The “acquisition of conditioned reflex … (F)” value ([2]; 10 mg/kg s.c., day 4) was 17.8, the “number of intersignal reactions (IR)” value ([2]; 10 mg/kg s.c., day 4) was 4.5 and the “number of negative responses (-f)” value ([2]; 10 mg/kg s.c., day 4) was 29.9. The “acquisition of conditioned reflex … (F)” value ([2]; 10 mg/kg s.c., day 5) was 14.5, the “number of intersignal reactions (IR)” value ([2]; 10 mg/kg s.c., day 5) was 3.3 and the “number of negative responses (-f)” value ([2]; 10 mg/kg s.c., day 5) was 37.5. The “acquisition of conditioned reflex … (F)” value ([2]; 25 mg/kg s.c., day 1) was 8.7, the “number of intersignal reactions (IR)” value ([2]; 25 mg/kg s.c., day 1) was 12.4 and the “number of negative responses (-f)” value ([2]; 25 mg/kg s.c., day 1) was 54.9. The “acquisition of conditioned reflex … (F)” value ([2]; 25 mg/kg s.c., day 2) was 4.2, the “number of intersignal reactions (IR)” value ([2]; 25 mg/kg s.c., day 2) was 5.0 and the “number of negative responses (-f)” value ([2]; 25 mg/kg s.c., day 2) was 67.4. The “acquisition of conditioned reflex … (F)” value ([2]; 25 mg/kg s.c., day 3) was 8.9, the “number of intersignal reactions (IR)” value ([2]; 25 mg/kg s.c., day 3) was 9.2 and the “number of negative responses (-f)” value ([2]; 25 mg/kg s.c., day 3) was 74.1. For the same compound, the “acquisition of conditioned reflex … (F)” value ([2]; 25 mg/kg s.c., day 4) was 4.0, the “number of intersignal reactions (IR)” value ([2]; 25 mg/kg s.c., day 4) was 4.9 and the “number of negative responses (-f)” value ([2]; 25 mg/kg s.c., day 4) was 80.1. For the same compound, the “acquisition of conditioned reflex … (F)” value ([2]; 25 mg/kg s.c., day 5) was 2.5, the “number of intersignal reactions (IR)” value ([2]; 25 mg/kg s.c., day 5) was 3.3 and the “number of negative responses (-f)” value ([2]; 25 mg/kg s.c., day 5) was 85.0. For the same compound, the 5HT level (serotonin (5HT); brainstem) was 792.5 ± 36.9 ng/g, the “TR5HT (turnover rate of 5HT)” value (serotonin (5HT); brainstem) was 237.2 ng/g/h and the 5HT level (serotonin (5HT); teldiencephalon) was 457.9 ± 24.2 ng/g. For the same compound, the “TR5HT (turnover rate of 5HT)” value (serotonin (5HT); teldiencephalon) was 53.9 ng/g/h, the DA level (dopamine (DA)) was 9.14 ± 0.49 µg/g and the “TRDA (turnover rate of DA)” value (dopamine (DA)) was 1.4 ng/g/h.

With `CNC1=Nc2ccc(Cl)cc2C(c2ccccc2)=[N+]([O-])C1` [Chlordiazepoxide, chlordiazepoxide, reference compound] the “displacement of 3H-diazepam specific binding” value (benzodiazepine receptor) was “displaced ^3 H-diazepam on the receptor in concentration dependent manner”, the “inhibition of the development of conditioned reflex” value [3] was “does not influence the development of CR” and the “acquisition of conditioned reflex … (F)” value ([2]; 5 mg/kg s.c., day 1) was 23.1. The “number of intersignal reactions (IR)” value ([2]; 5 mg/kg s.c., day 1) was 108, the “number of negative responses (-f)” value ([2]; 5 mg/kg s.c., day 1) was 11.8 and the “acquisition of conditioned reflex … (F)” value ([2]; 5 mg/kg s.c., day 2) was 38.7. For the same compound, the “number of intersignal reactions (IR)” value ([2]; 5 mg/kg s.c., day 2) was 14.0, the “number of negative responses (-f)” value ([2]; 5 mg/kg s.c., day 2) was 9.1 and the “acquisition of conditioned reflex … (F)” value ([2]; 5 mg/kg s.c., day 3) was 35.6. For the same compound, the “number of intersignal reactions (IR)” value ([2]; 5 mg/kg s.c., day 3) was 8.9, the “number of negative responses (-f)” value ([2]; 5 mg/kg s.c., day 3) was 10.2 and the “acquisition of conditioned reflex … (F)” value ([2]; 5 mg/kg s.c., day 4) was 41.1. For the same compound, the “number of intersignal reactions (IR)” value ([2]; 5 mg/kg s.c., day 4) was 6.7, the “number of negative responses (-f)” value ([2]; 5 mg/kg s.c., day 4) was 14.9 and the “acquisition of conditioned reflex … (F)” value ([2]; 5 mg/kg s.c., day 5) was 50.8. The “number of intersignal reactions (IR)” value ([2]; 5 mg/kg s.c., day 5) was 4.2, the “number of negative responses (-f)” value ([2]; 5 mg/kg s.c., day 5) was 13.0 and the “number of negative responses (f) (in words)” value ([2]; 10 mg/kg) was “increased”. The “acquisition of conditioned reflex … (F)” value ([2]; 10 mg/kg s.c., day 1) was 19.9, the “number of intersignal reactions (IR)” value ([2]; 10 mg/kg s.c., day 1) was 10.8 and the “number of negative responses (-f)” value ([2]; 10 mg/kg s.c., day 1) was 32.7. The “acquisition of conditioned reflex … (F)” value ([2]; 10 mg/kg s.c., day 2) was 37.9, the “number of intersignal reactions (IR)” value ([2]; 10 mg/kg s.c., day 2) was 14.7 and the “number of negative responses (-f)” value ([2]; 10 mg/kg s.c., day 2) was 22.8. For the same compound, the “acquisition of conditioned reflex … (F)” value ([2]; 10 mg/kg s.c., day 3) was 33.7, the “number of intersignal reactions (IR)” value ([2]; 10 mg/kg s.c., day 3) was 8.1 and the “number of negative responses (-f)” value ([2]; 10 mg/kg s.c., day 3) was 31.8. The “acquisition of conditioned reflex … (F)” value ([2]; 10 mg/kg s.c., day 4) was 35.6, the “number of intersignal reactions (IR)” value ([2]; 10 mg/kg s.c., day 4) was 6.3 and the “number of negative responses (-f)” value ([2]; 10 mg/kg s.c., day 4) was 36.5. For the same compound, the “acquisition of conditioned reflex … (F)” value ([2]; 10 mg/kg s.c., day 5) was 41.2, the “number of intersignal reactions (IR)” value ([2]; 10 mg/kg s.c., day 5) was 6.1 and the “number of negative responses (-f)” value ([2]; 10 mg/kg s.c., day 5) was 40.8. The “acquisition of conditioned reflex … (F)” value ([2]; 25 mg/kg s.c., day 1) was 9.7, the “number of negative responses (-f)” value ([2]; 25 mg/kg s.c., day 1) was 74.0 and the “acquisition of conditioned reflex … (F)” value ([2]; 25 mg/kg s.c., day 2) was 12.2. For the same compound, the “number of negative responses (-f)” value ([2]; 25 mg/kg s.c., day 2) was 67.5, the “acquisition of conditioned reflex … (F)” value ([2]; 25 mg/kg s.c., day 3) was 17.9 and the “number of negative responses (-f)” value ([2]; 25 mg/kg s.c., day 3) was 67.0. The “acquisition of conditioned reflex … (F)” value ([2]; 25 mg/kg s.c., day 4) was 20.0, the “number of negative responses (-f)” value ([2]; 25 mg/kg s.c., day 4) was 65.6 and the “acquisition of conditioned reflex … (F)” value ([2]; 25 mg/kg s.c., day 5) was 21.4. The “number of negative responses (-f)” value ([2]; 25 mg/kg s.c., day 5) was 59.8, the “acquisition of conditioned reflex (in words)” value ([2]; 10 and 5 mg/kg) was “unchanged” and the “intersignal reactions (IR) (in words)” value ([2]; 10 and 5 mg/kg) was “unchanged”.

For `O=C(CCCN1CCC(O)(c2ccc(Cl)cc2)CC1)c1ccc(F)cc1` [Haloperidol, reference compound], the “inhibition of the development of conditioned reflex” value [3] was “strong inhibition” and the “rate of metabolism / O2 consumption” value [1] was “slightly decreased”.
